Our source for the GI50 and TGI values is PubChem BioAssay (NCI).

Among the test systems are BT-549 breast; HCC-2998 colon; KM12 colon; CAKI-1 renal; U251 CNS; COLO 205 colon; TK-10 renal; CCRF-CEM leukemia; MCF7 breast; HS 578T breast.
Common to all, as to experiment: DTP human tumour cell line panel, 48 h

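Tested at 5 concentrations; 48 h exposure; 96-well plates; endpoints linearly interpolated, else capped at highest concentration. At the GI50, growth is halved. TGI: total growth inhibition.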

The GI50 is the concentration that inhibits growth by half. Usually TGI stands for the concentration at which net growth stops. A lower TGI goes with more potent growth arrest. Turning to `Cl.Fc1c[c-]c(-c2ccccn2)c(F)c1.[Pt].c1ccc(P(c2ccccc2)C([PH+](c2ccccc2)c2ccccc2)[PH+](c2ccccc2)c2ccccc2)cc1`, the GI50 in the assay with BT-549 breast was 3.24 µM; with HCC-2998 colon it was 4.43 µM; in the assay with KM12 colon, 3.55 µM; in the assay with CAKI-1 renal, 2.19 µM; in the assay with U251 CNS, 3.23 µM; in the assay with COLO 205 colon it was 1.87 µM. Further, the GI50 with TK-10 renal is 2.67 µM; in the assay on CCRF-CEM leukemia, 3.26 µM; in the assay on MCF7 breast, 2.95 µM; with HS 578T breast, 2.92 µM. Besides, the total growth inhibition concentration (TGI) in the assay with BT-549 breast is 17.1 µM; with HCC-2998 colon it was 29.6 µM; in the assay with KM12 colon, 14.7 µM; in the assay on CAKI-1 renal, 7.41 µM; with U251 CNS, 13.6 µM; with COLO 205 colon, 3.92 µM. Further, the TGI was 11.9 µM with TK-10 renal, above 100 µM in the assay with CCRF-CEM leukemia, above 100 µM in the assay on MCF7 breast and 39 µM in the assay with HS 578T breast.

In the case of `Cc1ccc(C(SCC(N)C(=O)O)(c2ccc(C)cc2)c2ccc(C)cc2)cc1` (stereo not given), the GI50 was 3.33 µM with BT-549 breast; 2.5 µM with HCC-2998 colon; 2.26 µM in the assay on KM12 colon; 2.74 µM in the assay on CAKI-1 renal; 1.71 µM with U251 CNS; 2.14 µM with COLO 205 colon. In addition, the GI50 in the assay on TK-10 renal is 8.31 µM; with CCRF-CEM leukemia, 3.08 µM; in the assay on MCF7 breast, 0.895 µM; in the assay with HS 578T breast, 0.669 µM. The concentration for total growth inhibition (TGI) in the assay on BT-549 breast was 20.5 µM; in the assay with HCC-2998 colon, 11 µM; in the assay with KM12 colon, 12.4 µM; with CAKI-1 renal, 12.5 µM; with U251 CNS, 16.8 µM; in the assay on COLO 205 colon, 5.62 µM. The TGI in the assay with TK-10 renal worked out at 22.6 µM; in the assay with CCRF-CEM leukemia, 55.4 µM; with MCF7 breast, 18.4 µM; with HS 578T breast, 4.44 µM.

With `CCCCCCCCCCCCCC1=NCCN1CCO`, the GI50 was 13.4 µM in the assay with BT-549 breast; 4.03 µM in the assay with HCC-2998 colon; 3 µM in the assay on KM12 colon; 2.34 µM in the assay with CAKI-1 renal; 2.1 µM in the assay with U251 CNS; 2.11 µM with COLO 205 colon. The GI50 in the assay with TK-10 renal is 4.75 µM; in the assay on CCRF-CEM leukemia it was 10.5 µM; with MCF7 breast it was 2.4 µM; with HS 578T breast it was 2.66 µM. The total growth inhibition concentration (TGI) in the assay on BT-549 breast was found to be 31.8 µM; in the assay with HCC-2998 colon, 16.5 µM; in the assay with KM12 colon it was 9 µM; in the assay on CAKI-1 renal, 7.27 µM; in the assay with U251 CNS, 4.95 µM; in the assay on COLO 205 colon, 3.97 µM. For the same compound, the total growth inhibition concentration (TGI) in the assay on TK-10 renal is 12.7 µM; in the assay on CCRF-CEM leukemia it was above 100 µM; in the assay with MCF7 breast it was 6.89 µM; with HS 578T breast, 6.54 µM.

As for `COC(=O)[C@]12CC[C@@H](C)[C@H](C)[C@@H]1C1=CC[C@@H]3[C@@]4(C)C(C=O)=C[C@@](C)(COC(C)=O)C4=CC[C@@]3(C)[C@]1(C)CC2`, the GI50 is 6.9 µM in the assay with BT-549 breast; 3.32 µM in the assay with HCC-2998 colon; 3.49 µM in the assay with KM12 colon; 3.66 µM with CAKI-1 renal; 3.37 µM in the assay on U251 CNS; 2.34 µM in the assay with COLO 205 colon. The GI50 is 9.31 µM with TK-10 renal, 1.95 µM in the assay on CCRF-CEM leukemia, 2.99 µM with MCF7 breast and 5.07 µM in the assay with HS 578T breast. For the same compound, the TGI in the assay with BT-549 breast turned out to be 25.9 µM; in the assay on HCC-2998 colon it was 12.4 µM; with KM12 colon it was 14.9 µM; in the assay on CAKI-1 renal, 17 µM; in the assay with U251 CNS, 13.9 µM; in the assay with COLO 205 colon, 5.8 µM. Besides, the concentration for total growth inhibition (TGI) in the assay on TK-10 renal is 21.6 µM; in the assay with CCRF-CEM leukemia, 7.82 µM; with MCF7 breast it was 12.5 µM; with HS 578T breast it was 30.3 µM.

In the case of `O=[N+]([O-])c1ccc(Sc2ncnc3nc[nH]c23)c2nonc12`, the GI50 is 10.3 µM with BT-549 breast; 4.6 µM in the assay with HCC-2998 colon; 15.1 µM in the assay on KM12 colon; 5.97 µM with CAKI-1 renal; 14.8 µM in the assay on U251 CNS; 2.17 µM in the assay on COLO 205 colon. Also, the GI50 is 2.34 µM with TK-10 renal, 1.78 µM with CCRF-CEM leukemia, 1.72 µM in the assay on MCF7 breast and 15.4 µM in the assay on HS 578T breast. Moreover, the concentration for total growth inhibition (TGI) with BT-549 breast was 27.4 µM; in the assay with HCC-2998 colon, 27.6 µM; with KM12 colon, above 100 µM; with CAKI-1 renal it was 33.7 µM; with U251 CNS, 50.5 µM; in the assay on COLO 205 colon it was 4.67 µM. Besides, the concentration for total growth inhibition (TGI) with TK-10 renal was 23.7 µM; with CCRF-CEM leukemia, 5.14 µM; in the assay on MCF7 breast it was 12.2 µM; with HS 578T breast, 77 µM.

As for `COC1CCN(C(=O)c2cc(Cc3n[nH]c(=O)c4ccccc34)ccc2F)CC1`, the GI50 was 28.8 µM in the assay with BT-549 breast; above 100 µM in the assay on HCC-2998 colon; above 100 µM in the assay with KM12 colon; 32.3 µM in the assay on CAKI-1 renal; above 55.3 µM in the assay on U251 CNS; above 100 µM with COLO 205 colon. In addition, the GI50 was above 100 µM in the assay on TK-10 renal, 43.9 µM in the assay on CCRF-CEM leukemia, 60.8 µM with MCF7 breast and above 64.5 µM with HS 578T breast. Further, the total growth inhibition concentration (TGI) in the assay with BT-549 breast, in the assay on HCC-2998 colon, with KM12 colon, in the assay with CAKI-1 renal, in the assay on U251 CNS and with COLO 205 colon was above 100 µM throughout. Also, the concentration for total growth inhibition (TGI) in the assay on TK-10 renal, in the assay with CCRF-CEM leukemia, in the assay on MCF7 breast and with HS 578T breast was above 100 µM each time.

Take `CS(=O)(=O)Nc1ccc(-c2cc(-c3ccccc3)cc(C(N)=O)c2N)cc1`: the GI50 in the assay on BT-549 breast is above 25 µM; with HCC-2998 colon, above 25 µM; with KM12 colon it was 20.5 µM; in the assay with CAKI-1 renal, above 22.6 µM; in the assay with U251 CNS, above 25 µM; in the assay on COLO 205 colon, above 25 µM. The GI50 with TK-10 renal is above 25 µM; in the assay with CCRF-CEM leukemia, 17.8 µM; in the assay on MCF7 breast, above 20.5 µM; in the assay on HS 578T breast, above 22.4 µM. Moreover, the concentration for total growth inhibition (TGI) with BT-549 breast, in the assay on HCC-2998 colon, with KM12 colon, with CAKI-1 renal, in the assay with U251 CNS and in the assay with COLO 205 colon was above 25 µM in each case. Further, the concentration for total growth inhibition (TGI) with TK-10 renal, in the assay with CCRF-CEM leukemia, in the assay with MCF7 breast and in the assay with HS 578T breast was above 25 µM in each case.
